The numbers were not newly measured in US20210298340A1, “Cannabis-Infused Product with Extended Cannabinoid Profile User Experience” (HEXO Operations Inc., priority 2018, published 2021), which cites them from elsewhere.

For data set [1] the following is noted: dogs; emulsion with droplet size 119 nm or 52 nm.
For data set [2] the following is noted: rats; solution in MCT oil or emulsion with droplet size 160 nm or 710 nm.
Another data set concerns skin. The following applies: 3 macro-emulsions >1000 nm and 3 nano-emulsions <100 nm.

Like-named read-outs stand apart in the source and are kept apart here.

In the case of `CCCCN(CCCC)CCC(O)c1cc2c(Cl)cc(Cl)cc2c2cc(C(F)(F)F)ccc12` (stereo not drawn) [halofantrine], the bioavailability result in data set [1] is given as “comparable”. `COc1nc(C(Cl)(Cl)Cl)c(Cl)c(OC)c1Cl` [penclomedine]: the bioavailability entry in data set [2] was “comparable”. In the case of `CCCCNc1ccc(C(=O)OCCN(C)C)cc1` [tetracaine], the “influence of emulsion droplet size on in vitro dermal and transdermal skin penetration” value in the data set with skin was “no influence”.
